# Results published in patent US11013696B2, “Lipids and lipid compositions for the delivery of active agents” (Novartis AG, priority 2013, dated 2021).
# Structures can show the parent of a compound that is named as a salt.
# Test: siRNA encapsulation in lipid nanoparticles (SYBR Gold)
# Type: physicochemical
# Conditions: Table 2; FVII siRNA in LNP with the cationic lipid
# Protocol: The lipid nanoparticles (LNPs) were formed by mixing equal volumes of lipids dissolved in alcohol with siRNA dissolved in a citrate buffer by an impinging jet process. The lipid solution contains a cationic lipid compound of the invention, a helper lipid (cholesterol), an optional neutral lipid (DSPC) and a PEG (PEG) lipid at a concentration of 8-16 mg/mL with a target of 12 mg/mL in an alcohol. The siRNA to total lipid ratio is approximately 0.05 (wt/wt). Where a LNP formulation contains four lipid components, the molar ratios of the lipids ranges from 20 to 70 mole percent for the cationic lipid with a target of 40-60, the mole percent of helper lipid ranges from 20 to 70 with a target of 30 to 50, the mole percent of neutral lipid ranges from 0-30, the mole percent of PEG lipid has a range from 1 to 6 with a target of 2 to 5. The concentration of siRNA solution ranges from 0.7 to 1.0 mg/mL with a target of 0.8 to 0.9 mg/mL in a sodium citrate: sodium chloride buffer pH 4-6, with a target of 4.5-5.5. The LNPs are formed by mixing equal volumes of lipid solution in ethanol with siRNA dissolved in a citrate buffer by an impinging jet process through a mixing device with ID ranging from 0.25 to 2.0 mm at a flow rate from 10 to 640 mL/min. The mixed LNP solution is held at room temperature for 0-24 hrs prior to a dilution step. The solution is then concentrated and diafiltered with suitable buffer by ultrafiltration or dialysis process using membranes with a MW cutoff from 30 to 500 KD. The final product is sterile filtered and stored at 4° C.
# The lipid nanoparticles (LNPs) were formed by mixing equal volumes of lipids dissolved in alcohol with siRNA dissolved in a citrate buffer by an impinging jet process. The lipid solution contains a cationic lipid compound of the invention, a helper lipid (cholesterol), an optional neutral lipid (DSPC) and a stealth lipid (5010, S024, S027, or S031) at a concentration of 8-16 mg/mL with a target of 12 mg/mL in an alcohol. The siRNA to total lipid ratio is approximately 0.05 (wt/wt). Where a LNP formulation contains four lipid components, the molar ratios of the lipids ranges from 20 to 70 mole percent for the cationic lipid with a target of 40-60, the mole percent of helper lipid ranges from 20 to 70 with a target of 30 to 50, the mole percent of neutral lipid ranges from 0-30, the mole percent of PEG lipid has a range from 1 to 6 with a target of 2 to 5. The concentration of siRNA solution ranges from 0.7 to 1.0 mg/mL with a target of 0.8 to 0.9 mg/mL in a sodium citrate: sodium chloride buffer pH 4-6, with a target of 4.5-5.5. The LNPs are formed by mixing equal volumes of lipid solution in ethanol with siRNA dissolved in a citrate buffer by an impinging jet process through a mixing device with ID ranging from 0.25 to 2.0 mm at a flow rate from 10 to 640 mL/min. The mixed LNP solution is held at room temperature for 0-24 hrs prior to a dilution step. The solution is then concentrated and diafiltered with suitable buffer by ultrafiltration process using membranes with a MW cutoff from 30 to 500 KD. The final product is sterile filtered and stored at 4° C.
# SYBR Gold flourescence reagent is used for the determination of siRNA encapsulation in the DLP's. DLP's with and without triton x-100 are used to determine the free siRNA and total siRNA amounts. DLP's samples with and without triton X-100 were excited at 485 nm and flourescence emission is measured at 530 nm. Encapsulation efficiency is calculated based on the following formula: Encapsulation efficiency:[([…])/(total siRNA concentration)]×100% Encapsulation Data
row,Structure (SMILES),% encapsulation siRNA FVII [%]
1,"CCCCCC(CCCCC)CCCCCCCC(=O)OCCC(CCCCCCCCCCO)OC(=O)OCCCN(C)C (stereo not shown) [Example 65, 3-(((3-(dimethylamino)propoxy)carbonyl)oxy)-13-hydroxytridecyl 9-pentyltetradecanoate]",39.5
2,"CCCCC/C=C\C/C=C\CCCCCCCCC(COCCOC(=O)CCCCCCC/C=C\C/C=C\CCCCC)OC(=O)CCN(C)C (stereo not shown) [Example 59, (9Z,12Z)-2-(((11Z,14Z)-2-((3-(dimethylamino)propanoyl)oxy)icosa-11,14-dien-1-yl)oxy)ethyl octadeca-9,12-dienoate]",90.2
3,"CCCCCCCCCCCCC(CCOC(=O)CC(CCCCCCCC)CCCCCCCC)OC(=O)OCCCN(C)C (stereo not shown) [Example 24, 3-(((3-(dimethylamino)propoxy)carbonyl)oxy)pentadecyl 3-octylundecanoate]",86.8
4,"CCCCCCCCCCCCC(CCOC(=O)C=C(CCCCCCCC)CCCCCCCC)OC(=O)OCCCN(C)C (stereo not shown) [Example 25, 3-(((3-(dimethylamino)propoxy)carbonyl)oxy)pentadecyl 3-octylundec-2-enoate]",87.1
5,"CCCCCCCCCCCCC(CCOC(=O)CCCC(CCCCCCC)CCCCCCC)OC(=O)OCCCN(C)C (stereo not shown) [Example 29, 3-(((3-(dimethylamino)propoxy)carbonyl)oxy)pentadecyl 5-heptyldodecanoate]",86.1
6,"CCCCCCCCC(CCCCCCCC)CC(CCCCOC(=O)CCCCCCC)OC(=O)OCCCN(C)C (stereo not shown) [Example 71, 5-(((3-(dimethylamino)propoxy)carbonyl)oxy)-7-octylpentadecyl octanoate]",86.7
7,"CCCCCCCC(CCCCCCC)CCCC(=O)OCCC(CCCCCCCCCCO)OC(=O)OCCCN(C)C (stereo not shown) [Example 62, 3-(((3-(dimethylamino)propoxy)carbonyl)oxy)-13-hydroxytridecyl 5-heptyldodecanoate]",75.2
8,"CCCCCCCCCCCCC(CCOC(=O)CCCCCCCC(CCCCC)CCCCC)OC(=O)OCCCN(C)C (stereo not shown) [Example 27, 3-(((3-(dimethylamino)propoxy)carbonyl)oxy)pentadecyl 9-pentyltetradecanoate]",86.6
9,"CCCCCCCCCCCCC(COC(=O)CCC(OCC(CC)CCCC)OCC(CC)CCCC)OC(=O)OCCCN(CC)CC (stereo not shown) [Example 48, 2-(((3-(diethylamino)propoxy)carbonyl)oxy)tetradecyl 4,4-bis((2-ethylhexyl)oxy)butanoate]",89.3
10,"CCCCCCCCCCCCC(CCOC(=O)CCC(OCC(CC)CCCC)OCC(CC)CCCC)OC(=O)OCCCN(CC)CC (stereo not shown) [Example 12, 3-(((3-(diethylamino)propoxy)carbonyl)oxy)pentadecyl 4,4-bis((2-ethylhexyl)oxy)butanoate]",91.7

# Other lines, results leading:
row,% encapsulation siRNA FVII [%],Structure (SMILES)
1,89.2,"CCCCC/C=C\C/C=C\CCCCCCCCC(CCOC(=O)CCCC(CCCCCCC)CCCCCCC)OC(=O)CCCN(C)C (stereo not shown) [Example 51, (12Z,15Z)-3-((4-(dimethylamino)butanoyl)oxy)henicosa-12,15-dien-1-yl 5-heptyldodecanoate]"
2,48.8,"CCCCC/C=C\C/C=C\CCCCCCCC(=O)OCC(COC(=O)CCCCCCC/C=C\C/C=C\CCCCC)OC(=O)CCC(CCCCCCCCCCCC)OC(=O)OCCCN(CC)CC (stereo not shown) [Example 81, (9Z,9′Z,12Z,12′Z)-2-((4-(((3-(diethylamino)propoxy)carbonyl)oxy)hexadecanoyl)oxy)propane-1,3-diyl bis(octadeca-9,12-dienoate)]"
3,77.5,"CCCCCCCCCCCCC(CCC(=O)OC(COC(=O)CCCCCCCCCCC)COC(=O)CCCCCCCCCCC)OC(=O)OCCCN(C)C (stereo not shown) [Example 87, 2-((4-(((3-(dimethylamino)propoxy)carbonyl)oxy)hexadecanoyl)oxy)propane-1,3-diyl didodecanoate]"
4,85.3,"CCCCC/C=C\C/C=C\CCCCCCCCC(CCOC(=O)CC(CCCCCCCC)CCCCCCCC)OC(=O)CCCN(C)C (stereo not shown) [Example 50, (12Z,15Z)-3-((4-(dimethylamino)butanoyl)oxy)henicosa-12,15-dien-1-yl 3-octylundecanoate, formate salt]"
5,89.8,"CCCCCCCCCCCCC(CCOC(=O)CCCCC=C(CCCCCC)CCCCCC)OC(=O)OCCCN(C)C (stereo not shown) [Example 26, 3-(((3-(dimethylamino)propoxy)carbonyl)oxy)pentadecyl 7-hexyltridec-6-enoate]"
6,88.6,"CCCCCCCCCCCCC(CCOC(=O)CCC(COC(=O)CCCCCCC)COC(=O)CCCCCCC)OC(=O)OCCCN(CC)CC (stereo not shown) [Example 4, 2-(10-dodecyl-3-ethyl-8,14-dioxo-7,9,13-trioxa-3-azahexadecan-16-yl)propane-1,3-diyl dioctanoate]"
7,84.6,"CCCCC/C=C\C/C=C\CCCCCCCCC(CCOC(=O)CCCCCC(CCCCCC)CCCCCC)OC(=O)CCCN(C)C (stereo not shown) [Example 52, (12Z,15Z)-3-((4-(dimethylamino)butanoyl)oxy)henicosa-12,15-dien-1-yl 7-hexyltridecanoate]"
8,85.6,"CCCCC/C=C\C/C=C\CCCCCCCCC(CCOC(=O)CCCCCCCC(CCCCC)CCCCC)OC(=O)CCCN(C)C (stereo not shown) [Example 53, (12Z,15Z)-3-((4-(dimethylamino)butanoyl)oxy)henicosa-12,15-dien-1-yl 9-pentyltetradecanoate]"
9,88.4,"CCCCC/C=C\C/C=C\CCCCCCCCC(CCOC(=O)CCCCCCC/C=C\C/C=C\CCCCC)OC(=O)CCN(C)C (stereo not shown) [Example 49, (9Z,12Z)-(12Z,15Z)-3-((3-(dimethylamino)propanoyl)oxy)henicosa-12,15-dien-1-yl octadeca-9,12-dienoate]"
10,85.7,"CCCCCCCCCCCCCC(=O)OCC(COC(=O)CCCCCCCCCCCCC)OC(=O)CCC(CCCCCCCCCCCC)OC(=O)OCCCN(C)C (stereo not shown) [Example 85, 2-((4-(((3-(dimethylamino)propoxy)carbonyl)oxy)hexadecanoyl)oxy)propane-1,3-diyl ditetradecanoate]"
11,86.9,"CCCCC/C=C\C/C=C\CCCCCCCCC(CCC(=O)OC(COC(=O)CCCCCCC)COC(=O)CCCCCCC)OC(=O)OCCCN(CC)CC (stereo not shown) [Example 95, 2-(((13Z,16Z)-4-(((3-(diethylamino)propoxy)carbonyl)oxy)docosa-13,16-dienoyl)oxy)propane-1,3-diyl dioctanoate]"
12,62.5,"CCCCC/C=C\C/C=C\CCCCCCCC(=O)OCCCCC(CC(CCCCCCCC)CCCCCCCC)OC(=O)OCCCN(C)C (stereo not shown) [Example 72, (9Z,12Z)-5-(((3-(dimethylamino)propoxy)carbonyl)oxy)-7-octylpentadecyl octadeca-9,12-dienoate]"
